Data on four substances can be found in patent publication US8178506B2, “Oligomeric compounds and compositions for use in modulation of small non-coding RNAs” (Regulus Therapeutics Inc., priority 2003, dated 2012).

In the oligonucleotide strings, read from the 5' end, every base follows the letter of its sugar. An asterisk marks phosphorothioate; unmarked linkages are phosphodiester. Other units and linkages are bracketed, terminal groups are in braces. A string of capitals states the bases alone. e = 2'-O-(2-methoxyethyl) (MOE); [5mC] = 5-methylcytosine

In series [1] the test system is adipocytes. In words: Triglyceride accumulation assay in adipocytes. The format is cell-based, human. The following applies: for Triglycerides: differentiating adipocytes day 10 post-induction, 24 hours after treatment.
Series [2] deals with aP2. In words: aP2 mRNA expression in adipocytes (real-time PCR). The following applies: for AP2 (mRNA expression): adipocytes, 250 nM oligomeric compound, day nine post-transfection, relative to control (1.0). Format: cell-based, human. A general note: Real-time PCR tracks product formation cycle by cycle.
In series [3] the test system is HSL. Nature of the series: HSL mRNA expression in adipocytes (real-time PCR). The format is cell-based, human. The following applies: for HSL (mRNA expression): adipocytes, 250 nM oligomeric compound, day nine post-transfection, relative to control (1.0).
Series [4] relates to Glut4. Nature of the series: Glut4 mRNA expression in adipocytes (real-time PCR). Format: cell-based, human. The following applies: for Glut4 (mRNA expression): adipocytes, 250 nM oligomeric compound, day nine post-transfection, relative to control (1.0).
In series [5] the test system is PPARγ. Nature of the series: PPARγ mRNA expression in adipocytes (real-time PCR). The format is cell-based, human. The following applies: for PPAR-gamma mRNA: differentiating adipocytes day 10 post-induction, 24 hours after treatment; for PPAR gamma (mRNA expression): adipocytes, 250 nM oligomeric compound, day nine post-transfection, relative to control (1.0).
Series [6] concerns HuVECs. In words: Endothelial tube formation assay in HuVECs. Particulars: 75 nM oligomeric compound.
Where [7] appears, read: Table 20, adipocyte differentiation assay as in Example 13.
The mark [8] stands for this setting: adipocytes, 250 nM oligomeric compound, relative to control (1.0), Table 15.
Where [9] appears, read: adipocytes, 250 nM oligomeric compound, relative to control (1.0), Table 16.
[10] abbreviates: 50 nM, differentiating adipocytes day 10 post-induction, 24 hours after treatment.
[11] abbreviates: 100 nM, differentiating adipocytes day 10 post-induction, 24 hours after treatment.
Where [12] appears, read: 200 nM, differentiating adipocytes day 10 post-induction, 24 hours after treatment.
Where [13] appears, read: 300 nM, differentiating adipocytes day 10 post-induction, 24 hours after treatment.
Where [14] appears, read: differentiating adipocytes transfected with oligomeric compound.

Turning to “327901 (antisense eT*eG*eA*eG*e[5mC]*eT*eA*e[5mC]*eA*eG*eT*eG*e[5mC]*eT*eT*e[5mC]*eA*eT*e[5mC]*eT*e[5mC]*eA) [compound 327901]”, the Triglycerides is listed as 85.3 % UTC in series [1] (50 nM), 68.9 % UTC in series [1] (100 nM), 34.0 % UTC in series [1] (200 nM) and 23.0 % UTC in series [1] (300 nM). The same substance came in with a TG in series [1] (setting [7]) of 0.54. In addition, the “TG (triglyceride accumulation)” value was found to be 0.54 in series [1] (setting [8]) and 0.53 in series [1] (setting [9]). Besides, the “AP2 mRNA” value turned out to be 78.3 % UTC in series [2] (setting [10]), 64.6 % UTC in series [2] (setting [11]), 39.0 % UTC in series [2] (setting [12]) and 22.4 % UTC in series [2] (setting [13]). Also, the AP2 in series [2] (setting [7]) is on record as 0.42. The “AP2 (mRNA expression)” value came to 0.42 in series [2] (Table 15) and 0.47 in series [2] (Table 16). For the same substance, the “HSL mRNA” value in series [3] (setting [10]) worked out at 89.5 % UTC; in series [3] (setting [11]), 73.5 % UTC; in series [3] (setting [12]), 40.2 % UTC; in series [3] (setting [13]), 11.9 % UTC. Further, the HSL in series [3] (setting [7]) turned out to be 0.33. The “HSL (mRNA expression)” value in series [3] (Table 15) came to 0.33; in series [3] (Table 16) it was 0.47. Further, the “GLUT4 mRNA” value in series [4] (setting [10]) came to 74.2 % UTC; in series [4] (setting [11]), 49.7 % UTC; in series [4] (setting [12]) it was 32.8 % UTC; in series [4] (setting [13]), 17.4 % UTC. This substance also showed a Glut4 in series [4] (setting [7]) of 0.19. In addition, the entries for the “Glut4 (mRNA expression)” value in series [4] (Table 15) and in series [4] (Table 16) were 0.19 and 0.29, respectively. The “PPAR-gamma mRNA” value in series [5] (50 nM) was found to be 74.6 % UTC; in series [5] (100 nM) it was 70.8 % UTC; in series [5] (200 nM), 51.8 % UTC; in series [5] (300 nM) it was 39.3 % UTC. In series [5] (setting [7]), this substance returned a PPAR gamma of 0.30. Also, the figures for the “PPAR gamma (mRNA expression)” value in series [5] (Table 15) and in series [5] (Table 16) were 0.30 and 0.72, respectively. The results for the “% Activity Relative to UTC (tube formation)” value (from here on “% Activity Relative to UTC”) in series [6] (Table 57) and in series [6] (Table 59) were 48.3% and 100.0%, respectively.
“327890 (antisense eA*eG*e[5mC]*eA*e[5mC]*eA*eA*eA*e[5mC]*eT*eA*e[5mC]*eT*eA*e[5mC]*e[5mC]*eT*e[5mC]*eA) [compound 327890]”: the “TG (triglyceride accumulation)” value worked out at 0.92 in series [1] (setting [8]) and 0.61 in series [1] (setting [9]). Moreover, the “AP2 (mRNA expression)” value in series [2] (Table 15) came out at 0.91; in series [2] (Table 16), 0.69. In addition, the “HSL (mRNA expression)” value was determined as 0.86 in series [3] (Table 15) and 0.67 in series [3] (Table 16). In addition, the “Glut4 (mRNA expression)” value is given as 1.10 in series [4] (Table 15) and 0.67 in series [4] (Table 16). The “PPAR gamma (mRNA expression)” value was found to be 1.18 in series [5] (Table 15) and 0.94 in series [5] (Table 16). Also, the “% Activity Relative to UTC” value in series [6] (Table 56) is recorded as 92.9%.
As for “327928 (antisense eA*eA*e[5mC]*e[5mC]*eG*eA*eT*eT*eT*e[5mC]*eA*eG*eA*eT*eG*eG*eT*eG*e[5mC]*eT*eA*eG) [compound 327928]”, the “TG (triglyceride accumulation)” value in series [1] (setting [14]) is 45 percentage of untreated control (UTC). In addition, the “AP2 mRNA” value in series [2] (setting [14]) is 77 percentage of untreated control (UTC). For the same substance, the “HSL mRNA” value in series [3] (setting [14]) was 52 percentage of untreated control (UTC). In series [4] (setting [14]), the “GLUT4 mRNA” value is given as 39 percentage of untreated control (UTC). In series [5] (setting [14]), the “PPAR gamma mRNA” value was 57 percentage of untreated control (UTC). In addition, the “% Activity Relative to UTC” value in series [6] (Table 58) is 37.0%.
For “327967 (antisense eA*e[5mC]*eT*eG*eT*eA*e[5mC]*eA*eA*eA*e[5mC]*eT*eA*e[5mC]*eT*eA*e[5mC]*e[5mC]*eT*e[5mC]*eA) [compound 327967]”, in series [1] (setting [9]), the “TG (triglyceride accumulation)” value turned out to be 0.90. Further, the “AP2 (mRNA expression)” value in series [2] (Table 16) is 0.86. The “HSL (mRNA expression)” value in series [3] (Table 16) is given as 0.97. In addition, the “Glut4 (mRNA expression)” value in series [4] (Table 16) is 0.56. The “PPAR gamma (mRNA expression)” value in series [5] (Table 16) turned out to be 0.89. Further, the “% Activity Relative to UTC” value in series [6] (Table 59) stood at 93.3%.
